From the PolyMetriX glass transition set
± gives the standard deviation of the reports.

| Compound | glass transition temperature [°C] |
| --- | --- |
| *OP(=O)(Oc1ccc([N+](=O)[O-])cc1)Oc1c(Br)cc(C(c2cc(Br)c(*)c(Br)c2)(C(F)(F)F)C(F)(F)F)cc1Br (repeat unit) | 154.00 |
| *Nc1cccc2c(NC(=O)c3cc(NC(=O)C(CCSC)N4C(=O)c5ccccc5C4=O)cc(C(*)=O)c3)cccc12 (repeat unit) | 198.00 |
| *CCc1cc(C)c(*)cc1C (repeat unit) | 100.00 |
| *[O][Sn]([CH2]CCC)([CH2]CCC)[O]C(=O)CCCCC(*)=O (repeat unit) | 110.00 |
| *Oc1ccc(S(=O)(=O)c2ccc(Oc3c(C)cc(C(C)(C)c4cc(C)c(*)c(C)c4)cc3C)cc2)cc1 (repeat unit) | 231.30 |
| *Oc1ccc(-c2ccc(OC(=O)c3ccc(C(*)=O)cc3Sc3ccc4ccccc4c3)cc2)cc1 (repeat unit) | 141.00 |
| *c1ccc(Oc2ccc(S(=O)(=O)c3ccc(Oc4ccc(-c5nc(-c6cccc(-c7nc(*)c(-c8ccccc8)[nH]7)c6)[nH]c5-c5ccccc5)cc4)cc3)cc2)cc1 (repeat unit) | 292.00 |
| *C1C(=O)N(c2ccc(O[Si](C)(C)C(C)(C)C)cc2)C(=O)C1* (repeat unit) | 169.00 |
| *Oc1ccc(/N=C(\c2ccccc2)c2ccc(Oc3ccc(-c4ccc(Oc5ccc(/C(=N/c6ccc(*)cc6)c6ccccc6)cc5)cc4)cc3)cc2)cc1 (repeat unit) | 174.00 |
| *C(=O)Nc1c(C)cc(Cc2cc(C)c(NC(=O)c3ccc4c(c3)C(=O)N(c3ccc(/N=N/c5ccc(F)cc5)c(N5C(=O)c6ccc(*)cc6C5=O)c3)C4=O)c(C)c2)cc1C (repeat unit) | 279.00 |
| *CC(*)(C)C(=O)OC(C)(C)C (repeat unit) [Poly(t-butyl methacrylate) ] | 107 ± 0.6 |
| *C(=O)c1ccc2nc(-c3ccccc3)c(-c3ccc(N4C(=O)c5ccc(C(=O)c6ccc7c(c6)C(=O)N(c6ccc(-c8nc9cc(*)ccc9nc8-c8ccccc8)cc6)C7=O)cc5C4=O)cc3)nc2c1 (repeat unit) | 255.00 |
| *CC(*)N1CCCC1=O (repeat unit) [Poly(N-vinyl pyrrolidone)] | 145 ± 7.9 |
| *CCCCSSCCCCOCO* (repeat unit) | -76.00 |
| *c1ccc2c(c1)C(=O)N(c1ccc(N(c3ccc(/C=C/c4ccc([N+](=O)[O-])cc4)cc3)c3ccc(N4C(=O)c5ccc(C(*)(C(F)(F)F)C(F)(F)F)cc5C4=O)cc3)cc1)C2=O (repeat unit) | 290.00 |
| *CCC(C)(C)C(*)(C)C (repeat unit) | 87.00 |
| *Nc1ccc(C(c2ccc(NC(=O)c3ccc(C(*)=O)cc3)cc2)(P2(=O)Oc3ccccc3-c3ccccc32)P2(=O)Oc3ccccc3-c3ccccc32)cc1 (repeat unit) | 245.00 |
| *C(=O)Nc1ccc(S(=O)(=O)c2ccc(NC(=O)c3ccc4c(c3)C(=O)N(c3ccc(Oc5ccc(N6C(=O)c7ccc(*)cc7C6=O)cc5)cc3)C4=O)cc2)cc1 (repeat unit) | 275.00 |
| *c1ccc(Oc2ccc(-c3c(-c4ccccc4)c4c(c(-c5ccccc5)c3-c3ccccc3)C(=O)N(c3cccc(N5C(=O)c6c(c(-c7ccccc7)c(-c7ccccc7)c(*)c6-c6ccccc6)C5=O)c3)C4=O)cc2)cc1 (repeat unit) | 357.00 |
| *c1nnc(-c2ccc(Oc3ccc(/C=C/c4ccc(Oc5ccc(*)c6ccccc56)cc4)c4ccccc34)c3ccccc23)o1 (repeat unit) | 241.00 |
| *CC(*)(C)C(=O)OCC(F)(F)C(F)F (repeat unit) [Poly(2,2,3,3-tetrafluoropropyl methacrylate)] | 75.42 ± 6.5 |
| *c1ccc(N(c2ccc(C#N)cc2)c2ccc(N3C(=O)c4ccc(Oc5ccc(C(c6ccc(Oc7ccc8c(c7)C(=O)N(*)C8=O)cc6)(C(F)(F)F)C(F)(F)F)cc5)cc4C3=O)cc2)cc1 (repeat unit) | 234.00 |

| Compound | glass transition temperature [°C] |
| --- | --- |
| *Nc1ccc(C2(c3ccc(NC(=O)c4ccc(-c5ccc(C(*)=O)c(C)c5)cc4C)cc3)c3ccccc3-c3ccccc32)cc1 (repeat unit) | 293.00 |
| *c1ccc(C(c2ccccc2)c2ccc(N3C(=O)c4ccc(S(=O)(=O)c5ccc6c(c5)C(=O)N(*)C6=O)cc4C3=O)cc2)cc1 (repeat unit) | 305.00 |
| *C(=O)c1ccc2c(c1)C(=O)N(c1cc(C(=O)c3ccccc3)cc(N3C(=O)c4ccc(*)cc4C3=O)c1)C2=O (repeat unit) | 282.00 |
| *CC(*)(Cl)C(=O)OCCC (repeat unit) | 66.00 |
| *CCN(*)C (repeat unit) | -31.00 |
| *CC(*)C(=O)OCCCCCC (repeat unit) | -57.00 |
| *C/C=C/C[Si](*)(CCCOc1ccccc1)c1ccccc1 (repeat unit) | -5.00 |
| *Oc1ccc(CC(NC(=O)CCc2ccc(OC(=O)COCC(*)=O)cc2)C(=O)OCCCCCCCC)cc1 (repeat unit) | 40.00 |
| *C1C2CC(CCCCCCCCC(=O)OCC)C(C2)C1* (repeat unit) | 134.00 |
| *CC(*)OC(=O)C1CCCC1 (repeat unit) | 36.00 |
| *Oc1c(-c2ccccc2)cc(*)cc1-c1ccccc1-c1ccccc1 (repeat unit) | 211.00 |
| *C(=O)c1ccc2c(c1)C(=O)N(c1ccc(CP(=O)(OCC)OCC)c(N3C(=O)c4ccc(*)cc4C3=O)c1)C2=O (repeat unit) | 218.00 |
| *Oc1ccc(Sc2ccc(Oc3ccc(-c4ccc(-c5ccc(-c6ccc(*)c(C(F)(F)F)c6)cc5)cc4)cc3C(F)(F)F)cc2)cc1 (repeat unit) | 176.50 |
| *C(=O)c1cccc(C(=O)c2ccc3c(c2)C(=O)N(c2ccc(Oc4ccc(N5C(=O)c6ccc(*)cc6C5=O)cc4)cc2)C3=O)c1 (repeat unit) | 244.00 |
| *c1ccc(Oc2ccc(Oc3ccc(NC(=O)c4ccc(Oc5cccc6c5C(=O)N(*)C6=O)cc4)cc3)cc2)cc1 (repeat unit) | 244.00 |
| *c1ccc(Sc2ccc(Sc3ccc(Sc4ccc(N5C(=O)c6ccc(Sc7ccc(Sc8ccc(Sc9ccc%10c(c9)C(=O)N(*)C%10=O)cc8)cc7)cc6C5=O)cc4)cc3)cc2)cc1 (repeat unit) | 176.5 |
| *Cc1ccc(CSS*)cc1 (repeat unit) | 23.00 |
| *c1ccc(Oc2ccc(C(=O)c3ccc(Oc4ccc(-c5c6c(c(*)c7ccccc57)C(=O)N(c5cccc(C(F)(F)F)c5)C6=O)cc4)cc3)cc2)cc1 (repeat unit) | 252.00 |
| *c1ccc2c(c1)C(=O)N(c1ccc(-c3ccc(N4C(=O)c5ccc(C(*)(C(F)(F)F)C(F)(F)F)cc5C4=O)cc3C(F)(F)F)c(C(F)(F)F)c1)C2=O (repeat unit) | 327.00 ± 18 |
| *CC(*)(CC(=O)OCCC)C(=O)OCCC (repeat unit) | 46.50 |
| *Oc1ccc(C2(c3ccc(Oc4ccc(C(=O)c5c(C(=O)c6ccc(*)cc6)c(-c6ccc(F)cc6)c(-c6ccc(F)cc6)c(-c6ccc(F)cc6)c5-c5ccc(F)cc5)cc4)cc3)c3ccccc3-c3ccccc32)cc1 (repeat unit) | 293.00 |

Continued, values first:

| glass transition temperature [°C] | Compound |
| --- | --- |
| 130.00 | *Oc1cccc(NC(=O)CCCCCC(=O)Nc2ccc(*)cc2)c1 (repeat unit) |
| 164.00 | *C1C(=O)N(c2cc(Br)c(O[Si](C)(C)C(C)(C)C)c(Br)c2)C(=O)C1* (repeat unit) |
| 33.00 | *CCCCCOC(=O)NCC(F)(F)C(F)(F)C(F)(F)C(F)(F)CNC(=O)O* (repeat unit) |
| 56.50 | *Oc1ccc(CC(NC(=O)CCc2ccc(OC(=O)CCCCC(*)=O)cc2)C(=O)OC(C)C)cc1 (repeat unit) |
| 225.00 | *c1ccc(NC(=O)c2ccc(OCCOc3ccc(C(=O)Nc4ccc5[nH]c(*)nc5c4)cc3)cc2)cc1 (repeat unit) |
| 156.00 | *CC(O)CN(*)c1ccc(/N=N/c2ccc([N+](=O)[O-])cc2C)cc1 (repeat unit) |
| 107.00 | *CCCCCCC(=O)Oc1ccc(-c2ccc(OC(=O)c3ccc4c(c3)C(=O)N(*)C4=O)cc2)cc1 (repeat unit) |
| 182.00 | *Oc1ccc(C(=O)Nc2cc(NC(=O)c3ccc(*)cc3)cc(C(=O)OCCOC(=O)/C=C/c3ccc(N(C)C)cc3)c2)cc1 (repeat unit) |
| 239.00 | *Oc1c(C)cc(C(C)(C)c2cc(C)c(OC(=O)c3ccc(C(*)=O)cc3)c(C)c2)cc1C (repeat unit) |
| 122.00 | *CCN(*)C(=O)c1c(F)cc(F)c(F)c1F (repeat unit) |
| 42.00 | *Oc1ccc(CC(NC(=O)Cc2ccc(OC(=O)CCCC(*)=O)cc2)C(=O)OCCCCCC)cc1 (repeat unit) |
| 362.00 | *c1cc(-n2c(=O)c3cc4c(=O)n(*)c(=O)c4cc3c2=O)c(O)cc1O (repeat unit) |
| 110.00 | *Cc1ccc(CNC(=O)CCCCCCCCCC(=O)N*)cc1 (repeat unit) |
| 125.00 | *Nc1cc([N+](=O)[O-])c(NC(=O)CCCCCCCCCCCCC(*)=O)cc1/C=C/c1ccc(N(C)C)cc1 (repeat unit) |
| 94.00 | *CCCCCCNC(=O)/C=C(\C)C(=O)N* (repeat unit) |
| 321.00 | *C(=O)c1cc2c(cc1Cl)C(=O)N(c1cc(C(=O)OC)cc(N3C(=O)c4cc(*)c(Cl)cc4C3=O)c1)C2=O (repeat unit) |
| 78.00 | *CCCCCCCCCCCCCCCCCCNC(=O)Cc1ccc(CC(=O)N*)cc1 (repeat unit) |
| 230.00 | *CCOCCOc1ccc(C(=O)Nc2cc(NC(=O)c3ccc(O*)cc3)cc(-c3nc4ccccc4[nH]3)c2)cc1 (repeat unit) |
| 47.00 | *C(=O)OCCCCCCCCCCCCOC(=O)c1ccc(N2C(=O)c3ccc(*)cc3C2=O)cc1 (repeat unit) |
| 165.00 | *CCCCCCCN1C(=O)c2ccc(C(c3ccc4c(c3)C(=O)N(*)C4=O)(C(F)(F)F)C(F)(F)F)cc2C1=O (repeat unit) |
| 45.90 | *C(=O)c1ccc(N(*)CCCCCCC)cc1 (repeat unit) |
